What all share (type): cell-based, human
In assay [1] the test system is Pre-Pro-ET-1 (PPET-1) gene. As to the kind of experiment: Real-Time RT-PCR specific for Pre-Pro-ET-1 (PPET-1) in ECV 304 cells. To be noted: ECV304 cells with or without IL-1β 100 U/ml, aminaphtone 2; 4; 6, 6-12-24-36 hrs. As to the method: (§1) Cell lines ECV 304: they are cells coming from umbilical cord of a new-born and spontaneously immortalized at the 136th step (distributed from Collection of Cell Cultures). Such cells were cultured in a complete medium consisted of: Medium 199, L-glutamine 1%, penicillin/streptomycin 10 (Invitrogen) with an addition of 10% FCS (fetal calf serum) (Hy-clone).
b) Real-Time RT-PCR specific for Pre-Pro-ET-1 (PPET-1). The expression of PPET-1 gene was detected at 6-12-24-36 hrs, respectively, in samples: treated with IL-1β (100 U/ml); treated with IL-1β (100 U/ml) additioned with aminaphtone (2; 4; […]); non-stimulated by IL-1β but treated with aminaphtone alone. RT-PCR technique based on TaqMan technology was used (Applied Biosystems, Foster City, Calif.), through a sequence determination system ABI PRISM 7000 (Applied Biosystems). 2-4 μl were collected form each cDNA, diluted 1:5, in a final volume of 25 μl. […] The quantification of the specific mRNA PPET-1 was normalized for the constitutive gene expression glyceraldehyde-3-phosphate-dehydro-genase (GAPDH). Relative quantifications of the gene expression were made possible by the use of the comparative method CT (ΔΔCT). The CT value was defined as the number of PCR cycles required for overcome the fluorescence signal (defined as 10-fold the standard deviation of the basal variation). […]
A general note: Real-time PCR tracks product formation cycle by cycle.

The test system of assay [2] is E-selectine adhesive molecule CD62 (ELAM-1). As to the kind of experiment: Cytofluorometric quantitative analysis of E-selectine (ELAM-1) expression in ECV 304 cells. As to conditions: 48 hr. The procedure:
as §1
Cytofluorometric quantitative analysis of aminaphtone effects on the E-selectine adhesive molecule expression CD62 (ELAM-1).
Cells of the ECV304 line, cultured in 28 cm^2 Petri dishes, were stimulated with IL-1β at 100 U/ml (Roche) over 48 hrs in a complete medium and complete medium additioned with aminaphtone at the concentration of 2; 4; 5 μg/ml, respectively. Such concentrations are equivalent to concentrations reached “in vivo” through administration of Capillarema per os at the standard dosage of 3 capsules/day (capsules with 75 mg of active substance per day). Furthermore, cells untreated with IL-1β were incubated in a complete medium additioned with aminaphtone alone at the concentration of 4 μg/ml.
Samples, after washing with PBS, were removed from the culture plates through a treatment with trypsin-EDTA. Adhesive molecules expression was detected through incubation over 20 min. with 7 μl/10^6 of human monoclonal antibody CD62-E-PECy5 (ELAM-1) (Becton-Dickinson). The binding specificity was ensured by the addition of the control […]. After washing and re-suspension in the fixing solution (1% paraformaldehyde, PFA in PBS), samples were analyzed in a flow cytometry with FACSdiva Software (Becton-Dickinson). Data were expressed as mean channel fluorescence and as fluorescence percentage of positive cells. All experiments were repeated 5 times on independent cell samples coming from different experimental sessions. Evaluation of endothelin production (ET-1).

The next assay has as its system endothelin-1 (ET-1). As to the kind of experiment: Endothelin-1 production from ECV 304 cells, EIA-kit on supernatants. To be noted: aminaphtone 2, 4, 6 mcg/ml, dose-dependent. The procedure: as §1
a) EIA-kit—Supernatants of cell samples ECV304 were collected, cultured as above, treated with IL-1β at 100 U/ml over 6-12-24 and 36 hrs or with IL-1β at 100 U/ml additioned with aminaphtone at the concentration of 2; 4; 6 μg/ml, respectively. Moreover, samples non-stimulated with IL-1β were incubated with the addition of aminaphtone alone at 2; 4; 6 μg/ml.
The concentration of ET-1 existing in the supernatants was quantified through Endothelin-1 EIA-Kit (CAYMAN Chemical) in an interval between 0 and 250 pg/ml. This immunometric test is based on the “sandwich” technique with a double antibody.

Take `Cc1cc(OC(=O)c2ccc(N)cc2)c2ccccc2c1O` [aminaphtone, 2-hydroxy-3-methyl-1,4-naphthohydroquinone-2-p-aminobenzoate]: in assay [1], the “gene transcription of PRE-PRO-ET-1” value is on record as “trend, already observed at a level of gene transcription of PRE-PRO-ET-1”. In addition, the “ELAM-1 % positive cells” value is on record as 36.6±4.5% in assay [2] (ECV304 cells + IL-1β 100 U/ml, aminaphtone 2 mcg/ml, IL-1β alone 38.4±3.7, p=n.s.); 28.2±2.9% in assay [2] (ECV304 cells + IL-1β 100 U/ml, aminaphtone 4 mcg/ml, IL-1β alone 38.4±3.7, p<0.001); 27.2±3.7% in assay [2] (ECV304 cells + IL-1β 100 U/ml, aminaphtone 5 mcg/ml, IL-1β alone 38.4±3.7, p<0.001); 19.4±1.7% in assay [2] (ECV304 cells not activated with IL-1β, aminaphtone 4 mcg/ml, medium alone 29.1±3.1, p<0.05). For the same molecule, the “ELAM-1 membrane fluorescence, mean channel (MC), mean±standard deviation” value came to 332.2±36.8 in assay [2] (ECV304 cells + IL-1β 100 U/ml, aminaphtone 2 mcg/ml, IL-1β alone 369.6±30.5, p<0.001); 278.4±16.2 in assay [2] (ECV304 cells + IL-1β 100 U/ml, aminaphtone 4 mcg/ml, IL-1β alone 369.6±30.5, p<0.001); 252.6±10.3 in assay [2] (ECV304 cells + IL-1β 100 U/ml, aminaphtone 5 mcg/ml, IL-1β alone 369.6±30.5, p<0.001); 219±8.3 in assay [2] (ECV304 cells not activated with IL-1β, aminaphtone 4 mcg/ml, medium alone 250±22, p<0.05). The “ET-1 production (EIA-kit)” value is reported as “tends to reduce the ET-1 production” with endothelin-1 (ET-1) (ECV304 cells non-activated, culture medium alone, significant at 12 h (6 mcg/ml), 24 h and 36 h (4, 6 mcg/ml)); “tends to reduce the ET-1 production” with endothelin-1 (ET-1) (ECV304 cells stimulated with IL-1β 100 U/ml, 6-12-24-36 hrs, significant at 6 h (4, 6 mcg/ml), 12 h (4, 6 mcg/ml), 36 h (6 mcg/ml)).

For the origin of these results see patent US10028929B2, “Method of treating raynaud's disease secondary to connectivitis using aminaphtone” (LABORATORI BALDACCI S.P.A., priority 2006, dated 2018).
